Results reported in patent publication US10941109B2, “Compositions and methods of treatment using a BCAT1 inhibitor” (Ergon Pharmaceuticals, LLC, priority 2011, dated 2021).

Tested on: TGF-β1-stimulated human fibroblasts
Assay: Collagen I production from TGF-β1-stimulated human fibroblasts (ELISA)
Assay type: cell-based
Conditions: for inhibition of collagen I secretion: at a concentration of 5-10 mM; for % Control Collagen Production: 30 min pretreatment, 7 ng/mL TGF-β1 for 48 hrs, collagen I per μg cell lysate
Description: In vitro fibrosis is assessed by measuring collagen synthesis after treatment of fibroblast cells with a profibrotic stimuli such as TGF-β1 or bleomycin. Collagen secretion into the media can be quantified in conditioned media using an appropriate ELISA kit.
Confluent monolayers of human fibroblasts, plated onto duplicate 35 mm dishes, were pretreated with various concentrations of compounds 2, 6, and 7 for 30 min followed by stimulation of the cells with 7 ng/mL TGF-β1 for 48 hrs. At the end of the experiment, conditioned media were collected and assessed for the presence of secreted collagen I, whereas cells were collected and lysed. Collagen I secretion was quantified using an ELISA kit from R&D Systems per the manufacturer's instructions and expressed as arbitrary absorbance units per μg of cell lysate. In Table 2, results are shown as % Control Collagen Production, defined as the amount of collagen I secreted per μg of cell lysate from fibroblast cultures stimulated with TGF-β1 in the absence of an inhibitor.

Row | Structure (SMILES) | inhibition of collagen I secretion | % Control Collagen Production (compound concentration 5 mM) [%] | % Control Collagen Production (compound concentration 10 mM) [%] | % Control Collagen Production (compound concentration 2 mM) [%]
1 | CC(=O)C(C)CC(Cc1ccccc1)C(=O)O (stereo not drawn) [Compound 2, 2-benzyl-4-methyl-5-oxohexanoic acid] | completely inhibit | 4 | – | –
2 | CC(CCC(=O)O)C(=O)c1ccccc1 (stereo not drawn) [Compound 6, 4-methyl-5-oxo-5-phenylpentanoic acid] | completely inhibit | 77 | 2 | –
3 | CC(=O)C(CCC(=O)O)c1ccccc1 (stereo not drawn) [Compound 7, 5-oxo-4-phenylhexanoic acid] | completely inhibit | 41 | 2 | 150
